Reference: patent US9272056B2, “Method to produce hyperpolarised carboxylates” (GE Healthcare AS, priority 2005, dated 2016)

Assay: T1 relaxation in human full blood
Assay type: physicochemical
Settings: human full blood at 37° C.
Description: The amount of alanine, bicarbonate and lactate is dependent on the metabolic status of the tissue under investigation.

T1 relaxation: about 42 s
Compound: CC(=O)[13C](=O)O [^13C-pyruvate]
